This passage reports inhibition results from patent US12145939B2, “Substituted [1,2,4]triazolo[4,3-a]pyrazines as ion channel modulators” (PRAXIS PRECISION MEDICINES, INC., priority 2019, dated 2024).

Each structure is given as a SMILES string.

T1 sequence (Q9UQD0 whole entry): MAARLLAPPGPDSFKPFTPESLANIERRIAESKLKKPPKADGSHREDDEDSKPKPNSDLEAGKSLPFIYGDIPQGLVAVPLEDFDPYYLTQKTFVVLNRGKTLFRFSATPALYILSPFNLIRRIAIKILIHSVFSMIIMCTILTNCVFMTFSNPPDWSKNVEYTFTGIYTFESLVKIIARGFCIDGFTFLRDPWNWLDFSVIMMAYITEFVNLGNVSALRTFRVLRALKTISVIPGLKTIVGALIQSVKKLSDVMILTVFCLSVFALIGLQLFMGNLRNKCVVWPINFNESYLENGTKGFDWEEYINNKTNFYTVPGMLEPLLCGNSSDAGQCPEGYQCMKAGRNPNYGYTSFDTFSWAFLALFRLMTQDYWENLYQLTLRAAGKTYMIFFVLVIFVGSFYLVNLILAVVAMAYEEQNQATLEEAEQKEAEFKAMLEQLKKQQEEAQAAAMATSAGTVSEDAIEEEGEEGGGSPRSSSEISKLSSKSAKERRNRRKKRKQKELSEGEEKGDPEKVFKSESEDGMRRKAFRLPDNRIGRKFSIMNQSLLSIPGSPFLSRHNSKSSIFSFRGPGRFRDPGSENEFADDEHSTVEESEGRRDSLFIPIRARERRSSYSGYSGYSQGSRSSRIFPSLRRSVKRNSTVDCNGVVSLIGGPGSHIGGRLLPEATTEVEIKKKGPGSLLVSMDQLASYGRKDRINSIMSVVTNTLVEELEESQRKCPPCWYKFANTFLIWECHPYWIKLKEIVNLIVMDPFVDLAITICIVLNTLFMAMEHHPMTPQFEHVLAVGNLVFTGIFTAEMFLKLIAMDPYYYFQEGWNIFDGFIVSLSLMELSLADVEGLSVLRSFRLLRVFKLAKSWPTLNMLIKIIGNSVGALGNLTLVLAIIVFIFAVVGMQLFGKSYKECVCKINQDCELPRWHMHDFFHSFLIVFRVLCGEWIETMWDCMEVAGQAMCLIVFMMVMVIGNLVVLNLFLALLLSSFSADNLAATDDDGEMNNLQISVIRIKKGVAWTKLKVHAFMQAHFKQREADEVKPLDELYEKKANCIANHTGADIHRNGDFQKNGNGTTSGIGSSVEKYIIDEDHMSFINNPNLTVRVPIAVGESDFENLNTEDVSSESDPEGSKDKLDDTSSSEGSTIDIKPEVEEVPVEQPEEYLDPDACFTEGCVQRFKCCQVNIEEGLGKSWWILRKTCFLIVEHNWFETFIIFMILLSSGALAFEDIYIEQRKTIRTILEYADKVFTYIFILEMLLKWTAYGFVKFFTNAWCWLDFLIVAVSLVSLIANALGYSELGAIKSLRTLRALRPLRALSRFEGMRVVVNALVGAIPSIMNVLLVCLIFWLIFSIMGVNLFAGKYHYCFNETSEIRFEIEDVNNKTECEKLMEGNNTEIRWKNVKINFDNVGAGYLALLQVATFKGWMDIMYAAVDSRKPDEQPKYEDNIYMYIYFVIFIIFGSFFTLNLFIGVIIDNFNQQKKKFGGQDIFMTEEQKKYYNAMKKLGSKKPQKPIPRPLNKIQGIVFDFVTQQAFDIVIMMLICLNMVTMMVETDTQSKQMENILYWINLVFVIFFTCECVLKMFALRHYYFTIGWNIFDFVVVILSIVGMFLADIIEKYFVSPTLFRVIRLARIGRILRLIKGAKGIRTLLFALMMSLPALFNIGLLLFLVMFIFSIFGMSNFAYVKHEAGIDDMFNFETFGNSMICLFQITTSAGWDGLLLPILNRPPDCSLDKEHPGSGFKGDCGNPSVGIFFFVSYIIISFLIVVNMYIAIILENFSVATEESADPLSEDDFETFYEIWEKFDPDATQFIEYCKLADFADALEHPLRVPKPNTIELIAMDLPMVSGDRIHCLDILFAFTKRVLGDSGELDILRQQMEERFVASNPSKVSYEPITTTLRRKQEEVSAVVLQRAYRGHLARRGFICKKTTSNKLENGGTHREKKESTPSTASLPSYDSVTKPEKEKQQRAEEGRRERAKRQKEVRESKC

The assay concerns the target T1, human NaV1.6 (hNaV1.6) (Homo sapiens, UniProt Q9UQD0).
T1 construct: expressed in transfected cells; host or cells: HEK-293
In words: Modulation of late sodium current (INaL) at hNaV1.6, PatchXpress electrophysiology. It counts as cell-based. As to conditions: HEK293, HEK-293 cells expressing recombinant human NaV 1.6, late current evoked by 300 nM ATX-II, read-out: NaV 1.6 Assay Data (percent inhibition of INaL at hNaV1.6). As to the method:
Functional characterization of exemplary compounds to modulate INaL expressed by the NaV1.6 voltage-gated sodium channel was accomplished using the PatchXpress™ high throughput electrophysiology platform (Molecular Devices, Sunnyvale, CA). HEK-293 cells expressing recombinant, human NaV1.6 (hNaV1.6) were grown in DMEM/high-glucose Dulbecco's modified, 10% FBS, 2 mM sodium pyruvate, 10 mM HEPES and 400 μg/mL G418. Cells were grown to 50%-80% confluency prior to harvesting. Trypsinized cells were washed, allowed to recover for 1 hour and then resuspended in extracellular recording solution at a concentration of 1×10^6 cells/ml. The onboard liquid handling facility of the PatchXpress was used for dispensing cells and applying test compounds. NaV late currents were evoked by the application of 300 nM ATX-II. INaL was evoked by depolarizing pulses to 0 mV for 200 ms from a non-inactivating holding potential (e.g., −120 mV) at a frequency of 0.1 Hz. INaL amplitude and stability were determined by analyzing the mean current amplitude over the final 20 ms of the test pulse. Following steady state block with exemplary compounds (e.g., as described herein), a Na+ free solution containing an impermeant cation (e.g., Choline or NDMG) was added to confirm the identity of the sodium current. Percent steady-state inhibition of INaL was calculated as: […], where INaL_compound and INaL_control represent INaL recorded in the presence or absence of compound, respectively.
Results from this assay relating to percent inhibition of INaL at hNaV1.6 (measured using a procedure similar to described above but using HEK-293 cells expressing recombinant, human NaV 1.6 (h NaV 1.6) at 1 μM are summarized in Table 1 below. In this table, “A” indicates inhibition of less than 30%; “B” indicates inhibition of between about 30% to about 70%; and “C” indicates inhibition of greater than 70%. “N/A” indicates not available.
Usually inhibition stands for the relative decrease from the control value, in per cent. For `CCO[C@H](C)c1nnc2cnc(-c3cnc(OC4(C(F)(F)F)CCC4)c(F)c3)cn12` [Compound I-14, (R)-3-(1-ethoxyethyl)-6-(5-fluoro-6-(1-(trifluoromethyl)cyclobutoxy)pyridin-3-yl)-[1,2,4]triazolo[4,3-a]pyrazine], the inhibition at 1 µM fell in the range of 30 to 70%.
The figure for `CCO[C@H](C)c1nnc2cnc(-c3ccc(OC(C)(C)C(F)(F)F)nc3)cn12` [Compound I-19, (R)-3-(1-ethoxyethyl)-6-(6-((1,1,1-trifluoro-2-methylpropan-2-yl)oxy)pyridin-3-yl)-[1,2,4]triazolo[4,3-a]pyrazine] is 30 to 70%; for `CCO[C@H](C)c1nnc2cnc(-c3ccc(OC4(C(F)(F)F)CCC4)nc3)cn12` [Compound I-20, (R)-3-(1-ethoxyethyl)-6-(6-(1-(trifluoromethyl)cyclobutoxy)pyridin-3-yl)-[1,2,4]triazolo[4,3-a]pyrazine] it is 30 to 70%.
The figure for `COC1(c2nnc3cnc(-c4cnc(OCC(F)(F)F)c(F)c4)cn23)CC1` [Compound II-1, 6-(5-fluoro-6-(2,2,2-trifluoroethoxy)pyridin-3-yl)-3-(1-methoxycyclopropyl)-[1,2,4]triazolo[4,3-a]pyrazine] is under 30%; for `COC1(c2nnc3cnc(-c4cnc(O[C@H](C)C(F)(F)F)c(F)c4)cn23)CC1` [Compound II-2, (R)-6-(5-fluoro-6-((1,1,1-trifluoropropan-2-yl)oxy)pyridin-3-yl)-3-(1-methoxycyclopropyl)-[1,2,4]triazolo[4,3-a]pyrazine] it is under 30%; for `COC1(c2nnc3cnc(-c4cnc(O[C@@H](C)C(F)(F)F)c(F)c4)cn23)CC1` [Compound II-3, (S)-6-(5-fluoro-6-((1,1,1-trifluoropropan-2-yl)oxy)pyridin-3-yl)-3-(1-methoxycyclopropyl)-[1,2,4]triazolo[4,3-a]pyrazine] it is 30 to 70%.
For `COC(C)(C)c1nnc2cnc(-c3cnc(OCC(F)(F)F)c(F)c3)cn12` [Compound II-4, 6-(5-fluoro-6-(2,2,2-trifluoroethoxy)pyridin-3-yl)-3-(2-methoxypropan-2-yl)-[1,2,4]triazolo[4,3-a]pyrazine], the inhibition at 1 µM is under 30%.
Consider `COC(C)(C)c1nnc2cnc(-c3ccc(OCC(F)(F)F)nc3)cn12` [Compound II-5, 3-(2-methoxypropan-2-yl)-6-(6-(2,2,2-trifluoroethoxy)pyridin-3-yl)-[1,2,4]triazolo[4,3-a]pyrazine], for which the inhibition at 1 µM was under 30%.
Regarding `C[C@H](Oc1ccc(-c2cn3c(C(F)(F)Cl)nnc3cn2)cn1)C(F)(F)F` [Compound II-7, (S)-3-(chlorodifluoromethyl)-6-(6-((1,1,1-trifluoropropan-2-yl)oxy)pyridin-3-yl)-[1,2,4]triazolo[4,3-a]pyrazine], the inhibition at 1 µM fell in the range of 30 to 70%.
Next, `COC(C)(C)c1nnc2cnc(-c3cnc(O[C@H](C)C(F)(F)F)c(F)c3)cn12` [Compound II-8, (R)-6-(5-fluoro-6-((1,1,1-trifluoropropan-2-yl)oxy)pyridin-3-yl)-3-(2-methoxypropan-2-yl)-[1,2,4]triazolo[4,3-a]pyrazine]: 30 to 70%; `COC(C)(C)c1nnc2cnc(-c3cnc(O[C@@H](C)C(F)(F)F)c(F)c3)cn12` [Compound II-9, (S)-6-(5-fluoro-6-((1,1,1-trifluoropropan-2-yl)oxy)pyridin-3-yl)-3-(2-methoxypropan-2-yl)-[1,2,4]triazolo[4,3-a]pyrazine]: 30 to 70%; `COC(C)(C)c1nnc2cnc(-c3cnc(OC(C)(C)C(F)(F)F)c(F)c3)cn12` [Compound II-10, 6-[5-fluoro-6-(2,2,2-trifluoro-1,1-dimethyl-ethoxy)-3-pyridyl]-3-(1-methoxy-1-methyl-ethyl)-[1,2,4]triazolo[4,3-a]pyrazine]: over 70%.
On to `CCOC(C)(C)c1nnc2cnc(-c3cnc(OC(C)(C)C(F)(F)F)c(F)c3)cn12` [Compound II-11, 3-(2-ethoxypropan-2-yl)-6-(5-fluoro-6-((1,1,1-trifluoro-2-methylpropan-2-yl)oxy)pyridin-3-yl)-[1,2,4]triazolo[4,3-a]pyrazine], for which the inhibition at 1 µM is 30 to 70%.
The figure for `COC(C)(C)c1nnc2cnc(-c3cnc(OC4(C(F)(F)F)CCC4)c(F)c3)cn12` [Compound II-12, 6-(5-fluoro-6-(1-(trifluoromethyl)cyclobutoxy)pyridin-3-yl)-3-(2-methoxypropan-2-yl)-[1,2,4]triazolo[4,3-a]pyrazine] is over 70%.
The figure for `COC(C)(C)c1nnc2cnc(-c3ccc(OC4(C(F)(F)F)CCC4)nc3)cn12` [Compound II-13, 3-(1-methoxy-1-methyl-ethyl)-6-[6-[1-(trifluoromethyl)cyclobutoxy]-3-pyridyl]-[1,2,4]triazolo[4,3-a]pyrazine] is 30 to 70%.
Regarding `COC(C)(C)c1nnc2cnc(-c3ccc(OC(C)(C)C(F)(F)F)nc3)cn12` [Compound II-14, 3-(1-methoxy-1-methyl-ethyl)-6-[6-(2,2,2-trifluoro-1,1-dimethyl-ethoxy)-3-pyridyl]-[1,2,4]triazolo[4,3-a]pyrazine], the inhibition at 1 µM lay in the range of 30 to 70%.
On to `CCOC(C)(C)c1nnc2cnc(-c3ccc(OC(C)(C)C(F)(F)F)nc3)cn12` [Compound II-15, 3-(2-ethoxypropan-2-yl)-6-(6-((1,1,1-trifluoro-2-methylpropan-2-yl)oxy)pyridin-3-yl)-[1,2,4]triazolo[4,3-a]pyrazine], for which the inhibition at 1 µM was 30 to 70%.
With `FC(F)(F)Oc1ccc(-c2cn3c(C(F)(F)F)nnc3cn2)c(C2CC2)c1` [Compound III-1, 6-[2-cyclopropyl-4-(trifluoromethoxy)phenyl]-3-(trifluoromethyl)-[1,2,4]triazolo[4,3-a]pyrazine], the inhibition at 1 µM was over 70%.
In the case of `CCOC(F)(F)c1nnc2cnc(-c3ccc(OC(F)(F)F)cc3C3CC3)cn12` [Compound III-2, 6-[2-cyclopropyl-4-(trifluoromethoxy)phenyl]-3-[ethoxy(difluoro)methyl]-[1,2,4]triazolo[4,3-a]pyrazine], the inhibition at 1 µM is over 70%.
Turning to `CCOC(F)(F)c1nnc2cnc(-c3ccc(COCC(F)(F)F)cc3C)cn12` [Compound III-5, 3-[ethoxy(difluoro)methyl]-6-[2-methyl-4-(2,2,2-trifluoroethoxymethyl)phenyl]-[1,2,4]triazolo[4,3-a]pyrazine], the inhibition at 1 µM is 30 to 70%.
Next, `COC(F)(F)c1nnc2cnc(-c3ccc(COCC(F)(F)F)cc3C)cn12` [Compound III-6, 3-[difluoro(methoxy)methyl]-6-[2-methyl-4-(2,2,2-trifluoroethoxymethyl)phenyl]-[1,2,4]triazolo[4,3-a]pyrazine]: 30 to 70%; `CCOC(F)(F)c1nnc2cnc(-c3ccc(COCC(F)(F)F)cc3)cn12` [Compound III-11, 3-(ethoxydifluoromethyl)-6-(4-((2,2,2-trifluoroethoxy)methyl)phenyl)-[1,2,4]triazolo[4,3-a]pyrazine]: 30 to 70%; `COCC(F)(F)Oc1ccc(-c2cn3c(C(F)(F)F)nnc3cn2)cc1` [Compound III-12, 6-(4-(1,1-difluoro-2-methoxyethoxy)phenyl)-3-(trifluoromethyl)-[1,2,4]triazolo[4,3-a]pyrazine]: 30 to 70%.
With `C[C@@H](Oc1ccc(-c2cn3c(C(F)F)nnc3cn2)cn1)C(F)(F)F` [Compound III-13, (R)-3-(difluoromethyl)-6-(6-((1,1,1-trifluoropropan-2-yl)oxy)pyridin-3-yl)-[1,2,4]triazolo[4,3-a]pyrazine], the inhibition at 1 µM is over 70%.
Regarding `FC(F)(F)c1nnc2cnc(-c3ccc(O[C@@H](C4CC4)C(F)(F)F)nc3)cn12` [Compound III-15, (S)-6-(6-(1-cyclopropyl-2,2,2-trifluoroethoxy)pyridin-3-yl)-3-(trifluoromethyl)-[1,2,4]triazolo[4,3-a]pyrazine], the inhibition at 1 µM is over 70%.
As for `C[C@H](Oc1ccc(-c2cn3c(C(F)F)nnc3cn2)cn1)C(F)(F)F` [Compound III-16, (S)-3-(difluoromethyl)-6-(6-((1,1,1-trifluoropropan-2-yl)oxy)pyridin-3-yl)-[1,2,4]triazolo[4,3-a]pyrazine], the inhibition at 1 µM was over 70%.
